pIC50: −log10 of the molar value.
How the values were obtained:
[1] = target: T1, integrin α4β7 (RPMI8866 human cells adhering to MAdCAM-1) (Homo sapiens, UniProt P13612+P26010); experiment: Integrin α4β7-MAdCAM cell adhesion assay (RPMI8866 cells); format: cell-based; conditions: RPMI8866 cells adhering to MAdCAM; read-out: RPMI8866 Adhesion α4β7/MAdCAM IC50
T1 construct: RMP18866 cells, which express integrin α4β7; host or cells: RPMI8866
T1 sequence (P13612 34-1032): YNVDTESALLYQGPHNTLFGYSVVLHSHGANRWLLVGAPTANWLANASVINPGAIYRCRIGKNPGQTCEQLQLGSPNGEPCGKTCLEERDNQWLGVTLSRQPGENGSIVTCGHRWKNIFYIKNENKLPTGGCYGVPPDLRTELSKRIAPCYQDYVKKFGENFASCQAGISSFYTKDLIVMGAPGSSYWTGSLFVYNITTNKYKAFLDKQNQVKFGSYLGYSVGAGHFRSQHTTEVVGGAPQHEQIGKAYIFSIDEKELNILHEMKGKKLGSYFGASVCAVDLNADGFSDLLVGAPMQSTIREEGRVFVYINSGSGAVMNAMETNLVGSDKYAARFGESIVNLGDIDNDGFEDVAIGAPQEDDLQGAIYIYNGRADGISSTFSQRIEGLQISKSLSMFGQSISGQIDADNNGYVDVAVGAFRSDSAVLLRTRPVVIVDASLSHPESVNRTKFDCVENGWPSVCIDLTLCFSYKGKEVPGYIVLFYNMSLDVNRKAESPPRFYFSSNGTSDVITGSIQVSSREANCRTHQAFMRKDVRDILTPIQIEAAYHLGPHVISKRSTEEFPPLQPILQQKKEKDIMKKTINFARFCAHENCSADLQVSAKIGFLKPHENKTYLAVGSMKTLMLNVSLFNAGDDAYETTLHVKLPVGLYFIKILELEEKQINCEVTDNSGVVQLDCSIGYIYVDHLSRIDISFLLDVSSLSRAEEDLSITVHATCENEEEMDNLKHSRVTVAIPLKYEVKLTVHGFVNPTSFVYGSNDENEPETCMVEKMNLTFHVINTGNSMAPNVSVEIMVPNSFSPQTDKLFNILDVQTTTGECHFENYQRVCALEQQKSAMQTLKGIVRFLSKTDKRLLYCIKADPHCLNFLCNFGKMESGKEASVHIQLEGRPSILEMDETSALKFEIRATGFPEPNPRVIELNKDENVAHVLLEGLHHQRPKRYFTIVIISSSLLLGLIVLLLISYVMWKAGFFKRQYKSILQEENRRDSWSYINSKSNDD
T1 sequence (P26010 20-798): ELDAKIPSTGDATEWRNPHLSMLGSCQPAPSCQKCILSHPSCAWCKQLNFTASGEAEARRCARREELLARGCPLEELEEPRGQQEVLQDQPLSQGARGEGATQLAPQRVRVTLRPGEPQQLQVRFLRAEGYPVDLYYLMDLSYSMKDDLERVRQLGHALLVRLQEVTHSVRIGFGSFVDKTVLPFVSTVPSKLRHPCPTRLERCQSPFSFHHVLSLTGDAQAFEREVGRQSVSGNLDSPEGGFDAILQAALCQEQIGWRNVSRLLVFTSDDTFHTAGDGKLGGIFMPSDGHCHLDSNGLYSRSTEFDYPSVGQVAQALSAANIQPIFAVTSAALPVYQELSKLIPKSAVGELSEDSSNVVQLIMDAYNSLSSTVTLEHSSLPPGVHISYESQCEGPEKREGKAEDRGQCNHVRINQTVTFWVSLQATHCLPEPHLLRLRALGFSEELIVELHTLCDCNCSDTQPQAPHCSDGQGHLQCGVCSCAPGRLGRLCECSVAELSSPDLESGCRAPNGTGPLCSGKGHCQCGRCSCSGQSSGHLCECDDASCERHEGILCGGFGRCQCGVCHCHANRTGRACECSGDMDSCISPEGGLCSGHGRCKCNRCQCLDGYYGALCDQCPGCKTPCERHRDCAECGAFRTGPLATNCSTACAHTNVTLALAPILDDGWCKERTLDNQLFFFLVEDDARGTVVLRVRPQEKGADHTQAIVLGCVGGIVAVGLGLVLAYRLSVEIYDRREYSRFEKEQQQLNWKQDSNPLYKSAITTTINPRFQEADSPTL
Procedure, shortened: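 RPMI8866 cells were loaded with […] calcein in PBS for 30 min at 37° C. After plate washes with PBS, fluorescence of adherent cells was read, and no-cell control wells were subtracted from each test well to build the dose response.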

[2] = target: T2, integrin α4β7 on α4β7+ memory T helper cells (Homo sapiens, UniProt P13612+P26010); experiment: MAdCAM-1 competition / receptor occupancy assay in human whole blood, α4β7-positive Th memory cells; format: cell-based; conditions: human whole blood; for pIC50: inhibition of MAdCAM-1 binding to α4β7-positive Th memory cells, FACS, read-out: MADCAM FACS α4β7 Th mem
T2 construct: endogenous in cells
T2 sequence (P13612 34-1032): T1 sequence (P13612 34-1032)
T2 sequence (P26010 20-798): T1 sequence (P26010 20-798)
Experimental: Analyte Competition Assay in CD4+ Integrin α4+β7-Lo Memory T Cells
Receptor occupancy in primary cells was determined by measuring the amount of biotinylated human recombinant MAdCAM-1-FC or human recombinant VCAM-1-Fc bound to selected cell populations using flow cytometry. Human recombinant MAdCAM-1-FC or human recombinant VCAM-1-FC (R&D systems) were biotinylated using commercially available reagents and protocol (Pierce).
Whole blood was collected from human donors in sodium heparin tubes. […] Cells were washed twice with 1 mL of 1X DPBS calcium magnesium free (CMF) (ThermoFisher Scientific) and resuspended in 100 microL of DPBS CMF.
Biotinylated human recombinant MAdCAM-1-Fc or VCAM-1-Fc were added at saturating concentration and incubated at room temperature for 1 hour. […] Cells were washed with 1 mL stain buffer-FBS (BD Biosciences) and resuspended in 100 μl stain Buffer-FBS (BD Biosciences) containing 4 mM MnCl2. […] Cells were then washed with 1 mL stain buffer-FBS and resuspended in […] stain buffer-FBS. The cells were incubated in the dark for 30 minutes at room temperature with 1 ul Streptavidin APC (Biolegend 0.2 mg/ml) and a panel of antibodies for the detection of memory T helper a4b7-positive cells subset. And amount of 5.0 ul each of the following antibodies were used; CD45 FITC (BioLegend 200 ug/ml), CD29 APC Cy7 (BioLegend 100 ug/ml), Integrin beta7 PE, (BioLegend concentration 50 μg/mL), CD49d V421 (BioLegend 50 μg/mL), CD3 V510 (BioLegend 30 μg/mL), CD4 PECy7 (BioLegend 100 μg/mL), CD45RO PerCP, BioLegend 200 μg/mL). The cells were then washed with stain-buffer-FBS and resuspended in 150 microL stain buffer-FBS for acquisition on the flow cytometer (BD FACSCanto™ flow cytometer and BDFACSDiva™ software). FACS data was acquire by electronic gating on the basis of forward versus side scatter, The cytometer was set to collect 20,000 events in each tube. Cell population were determined using the following markers, CD45+, CD3+, CD4+, CD45RO+, CD49d+, integrin b7, biotinylated ligands.
Compound receptor occupancy was defined as the decrease in the number of integrin β7+ or integrin β7-lo cells binding biotinylated rhMAdCAM-1 or rhVCAM-1, respectively.
Receptor occupancy was calculated with the following equation: 100−((% ligand-positive cells with compound/% ligand-positive cells DMSO)*100) In Vivo T Lymphocyte Trafficking Analysis in Mouse Model of Colitis

[3] = target: T3, recombinant integrin α4β1 (Homo sapiens, UniProt P05556+P13612); experiment: Integrin α4β1—VCAM-1 competition ELISA; format: binding; conditions: read-out: ELISA α4β1 Assay IC50
T3 construct: purchased R&D Systems 5397-A3-050
T3 sequence (P05556 21-728 limits assumed, one chain of several): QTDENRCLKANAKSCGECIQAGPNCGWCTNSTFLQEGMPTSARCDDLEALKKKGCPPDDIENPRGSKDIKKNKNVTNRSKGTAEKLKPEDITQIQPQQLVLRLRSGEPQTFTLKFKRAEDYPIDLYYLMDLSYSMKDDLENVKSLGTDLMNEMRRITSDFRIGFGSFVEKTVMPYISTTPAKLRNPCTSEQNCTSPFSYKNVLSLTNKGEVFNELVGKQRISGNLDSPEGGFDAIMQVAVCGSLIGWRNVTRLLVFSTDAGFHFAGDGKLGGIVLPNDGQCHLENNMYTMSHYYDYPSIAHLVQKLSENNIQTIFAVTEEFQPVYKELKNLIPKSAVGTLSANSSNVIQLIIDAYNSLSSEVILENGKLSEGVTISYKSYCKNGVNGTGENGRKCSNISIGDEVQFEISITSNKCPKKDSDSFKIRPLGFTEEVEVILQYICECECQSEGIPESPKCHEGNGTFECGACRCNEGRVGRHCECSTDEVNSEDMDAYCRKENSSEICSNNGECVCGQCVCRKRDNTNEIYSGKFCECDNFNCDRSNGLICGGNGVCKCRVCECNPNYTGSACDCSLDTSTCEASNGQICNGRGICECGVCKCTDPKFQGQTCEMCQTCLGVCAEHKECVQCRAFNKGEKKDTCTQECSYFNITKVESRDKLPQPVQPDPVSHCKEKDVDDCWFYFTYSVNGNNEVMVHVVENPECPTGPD
Procedure, shortened: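 Compound dilutions added to coated plate and shaken at room temperature for 2 h (300 rpm) to binding equilibrium. Wash buffer: 50 mM Tris, 100 mM NaCl, 1 mM MnCl2, 0.05% Tween. Bound Fc-tagged ligand detected with anti-human IgG Fc-HRP, 1 h at room temperature.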

SMILES	pIC50 [1]	pIC50 [2]	receptor occupancy at low concentrations ([2]; low concentrations) [%]	pIC50 [3]
CC(C)C[C@@H]1NC(=O)c2ccc(-c3ccc(N4CCN(C(=O)C[C@H](N)C(=O)N5CCN(c6ccc(-c7ccc8cc7CNC(=O)[C@@H]7CCCN7[C@H](C(=O)NC(C)(C)C)[C@H](C)NC(=O)[C@H]([C@@H](C)O)NC(=O)[C@H](CC(=O)O)NC(=O)[C@H](CC(C)C)NC8=O)cc6)CC5)CC4)cc3)c(c2)CNC(=O)[C@@H]2CCCN2[C@H](C(=O)NC(C)(C)C)[C@H](C)NC(=O)[C@H]([C@@H](C)O)NC(=O)[C@H](CC(=O)O)NC1=O [Compound 492]	7.60	6.98		
CC(C)C[C@@H]1NC(=O)c2ccc(-c3ccc(N4CCN(C(=O)c5cc(C(=O)N6CCN(c7ccc(-c8ccc9cc8CNC(=O)[C@@H]8CCCN8[C@H](C(=O)NC(C)(C)C)[C@H](C)NC(=O)[C@H]([C@@H](C)O)NC(=O)[C@H](CC(=O)O)NC(=O)[C@H](CC(C)C)NC9=O)cc7)CC6)cc(C(F)(F)F)c5)CC4)cc3)c(c2)CNC(=O)[C@@H]2CCCN2[C@H](C(=O)NC(C)(C)C)[C@H](C)NC(=O)[C@H]([C@@H](C)O)NC(=O)[C@H](CC(=O)O)NC1=O [Compound 477]	7.68	6.91		
CC(C)C[C@@H]1NC(=O)c2ccc(-c3ccc(N4CCNCC4)cc3)c(c2)CNC(=O)[C@@H]2CCCN2[C@H](C(=O)NC(C)(C)C)[C@H](C)NC(=O)[C@H]([C@@H](C)O)NC(=O)[C@H](CC(=O)O)NC1=O [Compound 340]			50	
CC(C)C[C@@H]1NC(=O)[C@H]2Cc3ccccc3CN2C(=O)[C@H](Cc2cccc(CNC(=O)CCCCCC(=O)NCc3cccc(C[C@@H]4NC(=O)[C@@H]5CCCN5[C@H](C(=O)NC(C)(C)C)[C@H](C)NC(=O)[C@H]([C@@H](C)O)NC(=O)[C@H](CC(=O)O)NC(=O)[C@H](CC(C)C)NC(=O)[C@H]5Cc6ccccc6CN5C4=O)c3)c2)NC(=O)[C@@H]2CCCN2[C@H](C(=O)NC(C)(C)C)[C@H](C)NC(=O)[C@H]([C@@H](C)O)NC(=O)[C@H](CC(=O)O)NC1=O [Compound 527]	7.37	6.90		8.96

Continued by rising pIC50 [2], values first:

pIC50 [1]	pIC50 [2]	SMILES	receptor occupancy at low concentrations ([2]; low concentrations) [%]	pIC50 [3]
7.35	6.60	CC(C)C[C@@H]1NC(=O)c2ccc(-c3ccc(N4CCN(C(=O)CCOCCOCCOCCOCCOCCOCCOCCOCCOCCOCCOCCC(=O)N5CCN(c6ccc(-c7ccc8cc7CNC(=O)[C@@H]7CCCN7[C@H](C(=O)NC(C)(C)C)[C@H](C)NC(=O)[C@H]([C@@H](C)O)NC(=O)[C@H](CC(=O)O)NC(=O)[C@H](CC(C)C)NC8=O)cc6)CC5)CC4)cc3)c(c2)CNC(=O)[C@@H]2CCCN2[C@H](C(=O)NC(C)(C)C)[C@H](C)NC(=O)[C@H]([C@@H](C)O)NC(=O)[C@H](CC(=O)O)NC1=O [Compound 503]		
	6.88	CC(C)C[C@@H]1NC(=O)c2ccc(-c3ccc(N4CCN(C(=O)c5ccnc(-c6cc(C(=O)N7CCN(c8ccc(-c9ccc%10cc9CNC(=O)[C@@H]9CCCN9[C@H](C(=O)NC(C)(C)C)[C@H](C)NC(=O)[C@H]([C@@H](C)O)NC(=O)[C@H](CC(=O)O)NC(=O)[C@H](CC(C)C)NC%10=O)cc8)CC7)ccn6)c5)CC4)cc3)c(c2)CNC(=O)[C@@H]2CCCN2[C@H](C(=O)NC(C)(C)C)[C@H](C)NC(=O)[C@H]([C@@H](C)O)NC(=O)[C@H](CC(=O)O)NC1=O [Compound 465]		
7.38	7.17	CC(C)C[C@@H]1NC(=O)c2ccc(-c3ccc(N4CCN(C(=O)Cc5cccc(CC(=O)N6CCN(c7ccc(-c8ccc9cc8CNC(=O)[C@@H]8CCCN8[C@H](C(=O)NC(C)(C)C)[C@H](C)NC(=O)[C@H]([C@@H](C)O)NC(=O)[C@H](CC(=O)O)NC(=O)[C@H](CC(C)C)NC9=O)cc7)CC6)c5)CC4)cc3)c(c2)CNC(=O)[C@@H]2CCCN2[C@H](C(=O)NC(C)(C)C)[C@H](C)NC(=O)[C@H]([C@@H](C)O)NC(=O)[C@H](CC(=O)O)NC1=O [Compound 462]		
7.60	7.19	CC(C)C[C@@H]1NC(=O)c2ccc(-c3ccc(N4CCN(C(=O)c5ccccc5C(=O)N5CCN(c6ccc(-c7ccc8cc7CNC(=O)[C@@H]7CCCN7[C@H](C(=O)NC(C)(C)C)[C@H](C)NC(=O)[C@H]([C@@H](C)O)NC(=O)[C@H](CC(=O)O)NC(=O)[C@H](CC(C)C)NC8=O)cc6)CC5)CC4)cc3)c(c2)CNC(=O)[C@@H]2CCCN2[C@H](C(=O)NC(C)(C)C)[C@H](C)NC(=O)[C@H]([C@@H](C)O)NC(=O)[C@H](CC(=O)O)NC1=O [Compound 512]		
7.54	7.34	CC(C)C[C@@H]1NC(=O)c2ccc(-c3ccc(N4CCN(C(=O)c5ccc6cc(C(=O)N7CCN(c8ccc(-c9ccc%10cc9CNC(=O)[C@@H]9CCCN9[C@H](C(=O)NC(C)(C)C)[C@H](C)NC(=O)[C@H]([C@@H](C)O)NC(=O)[C@H](CC(=O)O)NC(=O)[C@H](CC(C)C)NC%10=O)cc8)CC7)ccc6c5)CC4)cc3)c(c2)CNC(=O)[C@@H]2CCCN2[C@H](C(=O)NC(C)(C)C)[C@H](C)NC(=O)[C@H]([C@@H](C)O)NC(=O)[C@H](CC(=O)O)NC1=O [Compound 471]		
